According to EP2819510B1, “ORGAN PERFUSION SYSTEM” (Rodos BioTarget GmbH, priority 2012, dated 2013):

Assays:
CYP2C9 = CYP2C9 (Homo sapiens, UniProt P11712); assay: CYP activity in perfused liver tissue, diclofenac substrate
CYP3A4 = CYP3A4 (Homo sapiens, UniProt P08684); assay: CYP activity in perfused liver tissue, midazolam substrate
[1] = initial 30-min interval, dropped continuously thereafter
[2] = late (1-6 h), cirrhotic vs. non-cirrhotic liver

CYP3A4, sequence (P08684 whole entry, the tested form may be a part): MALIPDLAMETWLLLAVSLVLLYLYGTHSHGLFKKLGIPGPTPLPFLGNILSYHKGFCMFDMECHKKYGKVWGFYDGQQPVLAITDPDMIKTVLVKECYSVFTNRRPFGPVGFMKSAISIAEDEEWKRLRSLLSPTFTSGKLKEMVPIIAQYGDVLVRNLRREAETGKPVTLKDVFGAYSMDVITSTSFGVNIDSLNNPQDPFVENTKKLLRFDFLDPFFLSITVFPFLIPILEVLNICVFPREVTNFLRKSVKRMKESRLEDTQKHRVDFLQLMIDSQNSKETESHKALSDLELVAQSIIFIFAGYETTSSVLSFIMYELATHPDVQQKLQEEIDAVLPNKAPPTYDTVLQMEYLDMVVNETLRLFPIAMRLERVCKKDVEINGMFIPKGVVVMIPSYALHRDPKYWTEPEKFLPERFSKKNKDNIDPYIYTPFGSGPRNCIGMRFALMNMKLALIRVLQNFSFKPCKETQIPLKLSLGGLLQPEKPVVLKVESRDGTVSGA
CYP2C9, sequence (P11712 whole entry, the tested form may be a part): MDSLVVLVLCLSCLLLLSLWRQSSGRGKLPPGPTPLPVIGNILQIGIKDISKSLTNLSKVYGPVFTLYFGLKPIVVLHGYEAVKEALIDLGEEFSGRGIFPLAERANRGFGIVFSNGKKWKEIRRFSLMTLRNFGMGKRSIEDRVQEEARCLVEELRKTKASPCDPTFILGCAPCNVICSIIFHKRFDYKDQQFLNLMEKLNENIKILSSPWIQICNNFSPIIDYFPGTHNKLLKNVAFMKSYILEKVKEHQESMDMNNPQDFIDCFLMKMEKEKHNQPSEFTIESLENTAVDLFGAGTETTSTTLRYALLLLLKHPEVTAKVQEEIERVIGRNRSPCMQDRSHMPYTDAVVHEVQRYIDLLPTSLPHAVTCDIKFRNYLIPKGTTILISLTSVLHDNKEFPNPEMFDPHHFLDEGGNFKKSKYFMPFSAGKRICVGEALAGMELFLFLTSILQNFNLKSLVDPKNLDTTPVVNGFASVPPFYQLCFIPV

| SMILES | formation of phase-I metabolite (CYP2C9; [1]) | AUC of phase-I product, CL tissue higher than NC tissue (CYP2C9; [2]) [%] | formation of phase-I metabolite (CYP3A4; [1]) | AUC of phase-I product, CL tissue higher than NC tissue (CYP3A4; [2]) [%] |
| --- | --- | --- | --- | --- |
| O=C(O)Cc1ccccc1Nc1c(Cl)cc(O)cc1Cl [OH-diclofenac, 4'-hydroxydiclofenac] | formed quite rapidly | 26.9 | – | – |
| OCc1ncc2n1-c1ccc(Cl)cc1C(c1ccccc1F)=NC2 [OH-midazolam, 1'-hydroxymidazolam] | – | – | formed quite rapidly | 53.8 |
